Data from patent US12492173B2, “Herbicidal substituted N-tetrazolyl aryl carboxamides” (Bayer Aktiengesellschaft, priority 2019, dated 2025).

Tests used:
Format in all cases: in vivo
[1] = system: Veronica persica; assay: Post-emergence herbicidal action, VERPE; set-up: key: % herbicidal action vs untreated; 100 = plants died, 0 = like control; details: comparative experiment, post-emergence
Method in brief: (§1)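 WP or EC formulations, diluted in water at 600 to 800 l/ha with 0.2% wetting agent, are sprayed onto green parts of one-leaf-stage plants grown in sandy loam. Visual assessment of percent damage relative to untreated controls follows after approximately 3 weeks in the greenhouse.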

[2] = system: Stellaria media; assay: Post-emergence herbicidal action, STEME; set-up: key: % herbicidal action vs untreated; 100 = plants died, 0 = like control; details: comparative experiment, post-emergence, 5 g of a.i./ha
Method in brief: as §1

[3] = system: Setaria viridis; assay: Pre-emergence herbicidal action, SETVI; set-up: key to Herbicidal action against SETVI: % activity: 100 = plants have died, 0 = like control plants; details: comparative experiment
Method in brief: (§2)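 Sown pots (sandy loam) sprayed pre-emergence → greenhouse → visual rating at 3 weeks; % activity vs untreated control, 100% = dead.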

[4] = system: Veronica persica; assay: Pre-emergence herbicidal action, VERPE; set-up: key to Herbicidal action against VERPE: % activity: 100 = plants have died, 0 = like control plants; details: comparative experiment, 20 g of a.i./ha
Method in brief: as §2

[5] = system: Matricaria inodora; assay: Pre-emergence herbicidal action, MATIN; set-up: key to Herbicidal action against MATIN: % activity: 100 = plants have died, 0 = like control plants; details: comparative experiment, 20 g of a.i./ha
Method in brief: as §2

[6] = system: Polygonum convolvulus; assay: Post-emergence herbicidal action, POLCO; details: comparative experiment, post-emergence, 5 g of a.i./ha
Method in brief: as §1

[7] = system: Avena fatua; assay: Post-emergence herbicidal action, AVEFA; set-up: key: % herbicidal action vs untreated; 100 = plants died, 0 = like control; details: comparative experiment, post-emergence, 5 g of a.i./ha
Method in brief: as §1

[8] = system: Cyperus esculentus; assay: Pre-emergence herbicidal action, CYPES; set-up: key: % activity: 100 = plants have died, 0 = like control plants; details: comparative experiment
From the text: (§3) 1. Pre-Emergence Herbicidal Action Against Harmful Plants Seeds of monocotyledonous and dicotyledonous weed plants and crop plants are laid out in sandy loam soil in wood-fiber pots and covered with soil. The compounds of the invention, formulated in the form of wettable powders (WP) or as emulsion concentrates (EC), are then applied to the surface of the covering soil in the form of an aqueous suspension or emulsion at a water application rate equating to 600 to 800 l/ha, with addition of 0.2% wetting agent. After the treatment, the pots are placed in a greenhouse and kept under good growth conditions for the trial plants. The damage to the test plants is scored visually after a test period of 3 weeks by comparison with untreated controls (herbicidal activity in percent (%): 100% activity=the plants have died, 0% activity=like control plants). […] The tables below illustrate, in an exemplary manner, the […] herbicidal action of the compounds according to the invention, the herbicidal activity being stated in percent. [table] In the experiments that follow, herbicidal action of numerous inventive compounds and the known compounds that are structurally closest from D1 (WO 2012/028579 A1) and D2 (WO 2018/202535 A1) were compared under the above-specified conditions by the pre-emergence and post-emergence method. The example numbers given in the tables relate to the compounds disclosed in the respective documents. In addition to the compounds disclosed in D1 and D2, the following compounds V-1 to V-14 that are encompassed by D1 or D2 but are not compounds specified therein were used in the comparative experiments: • V-1: 2-(methylsulfanyl)-3-(methylsulfinyl)-N-(1-methyl-1H-tetrazol-5-yl)-4-(trifluoromethyl)benzamide • V-2: 2-(methylsulfanyl)-3-(methylsulfonyl)-N-(1-methyl-1H-tetrazol-5-yl)-4-(trifluoromethyl)benzamide • V-3: 2,3-bis(ethylsulfanyl)-N-(1-methyl-1H-tetrazol-5-yl)-4-(trifluoromethyl)benzamide • V-4: 2-chloro-3-(ethylsulfanyl)-N-(1-methyl-1H-tetrazol-5-yl)-4-(trifluoromethyl)benzamide • V-5: 2-chloro-4-iodo-3-(methylsulfanyl)-N-(1-methyl-1H-tetrazol-5-yl)benzamide • V-6: 2-chloro-4-iodo-3-(methylsulfinyl)-N-(1-methyl-1H-tetrazol-5-yl)benzamide • V-7: 2-chloro-4-iodo-3-(methylsulfonyl)-N-(1-methyl-1H-tetrazol-5-yl)benzamide • V-8: 2-bromo-3-(methylsulfanyl)-N-(1-methyl-1H-tetrazol-5-yl)-4-(trifluoromethyl)benzamide • V-9: 2-bromo-3-(methylsulfinyl)-N-(1-methyl-1H-tetrazol-5-yl)-4-(trifluoromethyl)benzamide • V-10: 2-bromo-3-(methylsulfonyl)-N-(1-methyl-1H-tetrazol-5-yl)-4-(trifluoromethyl)benzamide • V-11: 2-bromo-3-(ethylsulfanyl)-N-(1-methyl-1H-tetrazol-5-yl)-4-(trifluoromethyl)benzamide • V-12: 2-bromo-3-(ethylsulfinyl)-N-(1-methyl-1H-tetrazol-5-yl)-4-(trifluoromethyl)benzamide • V-13: 2-bromo-3-(ethylsulfonyl)-N-(1-methyl-1-1H-tetrazol-5-yl)-4-(trifluoromethyl)benzamide • V-14: 2-cyclopropyl-3-(ethylsulfanyl)-N-(1-methyl-1H-tetrazol-5-yl)-4-(trifluoromethyl)benzamide Herbicidal Pre-Emergence Action: […]

[9] = system: Alopecurus myosuroides; assay: Pre-emergence herbicidal action, ALOMY; set-up: key: % activity: 100 = plants have died, 0 = like control plants; details: comparative experiment
From the text: as §3

[10] = system: Matricaria inodora; assay: Post-emergence herbicidal action, MATIN; set-up: key: % herbicidal action vs untreated; 100 = plants died, 0 = like control; details: comparative experiment, post-emergence
Method in brief: as §1

[11] = system: Abutilon theophrasti; assay: Pre-emergence herbicidal action, ABUTH; set-up: key to Herbicidal action against ABUTH: % activity: 100 = plants have died, 0 = like control plants; details: comparative experiment
Method in brief: as §2

[12] = system: Alopecurus myosuroides; assay: Post-emergence herbicidal action, ALOMY; set-up: key: % herbicidal action vs untreated; 100 = plants died, 0 = like control; details: comparative experiment, post-emergence, 5 g of a.i./ha
Method in brief: as §1

[13] = system: Lolium multiflorum; assay: Post-emergence herbicidal action, LOLMU; set-up: key: % herbicidal action: 100 = plants died, 0 = like control; details: comparative experiment, post-emergence, 5 g of a.i./ha
Method: [table] 2. Post-Emergence Herbicidal Action Against Harmful Plants Seeds of monocotyledonous and dicotyledonous weed and crop plants are laid out in sandy loam soil in wood-fiber pots, covered with soil and cultivated in a greenhouse under good growth conditions. 2 to 3 weeks after sowing, the test plants are treated at the one-leaf stage. The compounds of the invention, formulated in the form of wettable powders (WP) or as emulsion concentrates (EC), are then sprayed onto the green parts of the plants in the form of an aqueous suspension or emulsion at a water application rate equating to 600 to 800 l/ha, with addition of 0.2% wetting agent. After the test plants have been left to stand in the greenhouse under optimal growth conditions for about 3 weeks, the action of the preparations is assessed visually in comparison to untreated controls (herbicidal action in percent (%): 100% activity=the plants have died, 0% activity=like control plants). […] The tables below illustrate, in an exemplary manner, the post-emergence herbicidal action of the compounds according to the invention, the herbicidal activity being stated in percent. In the experiments that follow, herbicidal action of numerous inventive compounds and the known compounds that are structurally closest from D1 (WO 2012/028579 A1) and D2 (WO 2018/202535 A1) were compared under the above-specified conditions by the pre-emergence and post-emergence method. The example numbers given in the tables relate to the compounds disclosed in the respective documents. In addition to the compounds disclosed in D1 and D2, the following compounds V-1 to V-14 that are encompassed by D1 or D2 but are not compounds specified therein were used in the comparative experiments: • V-1: 2-(methylsulfanyl)-3-(methylsulfinyl)-N-(1-methyl-1H-tetrazol-5-yl)-4-(trifluoromethyl)benzamide • V-2: 2-(methylsulfanyl)-3-(methylsulfonyl)-N-(1-methyl-1H-tetrazol-5-yl)-4-(trifluoromethyl)benzamide • V-3: 2,3-bis(ethylsulfanyl)-N-(1-methyl-1H-tetrazol-5-yl)-4-(trifluoromethyl)benzamide • V-4: 2-chloro-3-(ethylsulfanyl)-N-(1-methyl-1H-tetrazol-5-yl)-4-(trifluoromethyl)benzamide • V-5: 2-chloro-4-iodo-3-(methylsulfanyl)-N-(1-methyl-1H-tetrazol-5-yl)benzamide • V-6: 2-chloro-4-iodo-3-(methylsulfinyl)-N-(1-methyl-1H-tetrazol-5-yl)benzamide • V-7: 2-chloro-4-iodo-3-(methylsulfonyl)-N-(1-methyl-1H-tetrazol-5-yl)benzamide • V-8: 2-bromo-3-(methylsulfanyl)-N-(1-methyl-1H-tetrazol-5-yl)-4-(trifluoromethyl)benzamide • V-9: 2-bromo-3-(methylsulfinyl)-N-(1-methyl-1H-tetrazol-5-yl)-4-(trifluoromethyl)benzamide • V-10: 2-bromo-3-(methylsulfonyl)-N-(1-methyl-1H-tetrazol-5-yl)-4-(trifluoromethyl)benzamide • V-11: 2-bromo-3-(ethylsulfanyl)-N-(1-methyl-1H-tetrazol-5-yl)-4-(trifluoromethyl)benzamide • V-12: 2-bromo-3-(ethylsulfinyl)-N-(1-methyl-1H-tetrazol-5-yl)-4-(trifluoromethyl)benzamide • V-13: 2-bromo-3-(ethylsulfonyl)-N-(1-methyl-1-1H-tetrazol-5-yl)-4-(trifluoromethyl)benzamide • V-14: 2-cyclopropyl-3-(ethylsulfanyl)-N-(1-methyl-1H-tetrazol-5-yl)-4-(trifluoromethyl)benzamide Herbicidal Pre-Emergence Action: […]

[14] = system: Viola tricolor; assay: Pre-emergence herbicidal action, VIOTR; set-up: key to Herbicidal action against VIOTR: % activity: 100 = plants have died, 0 = like control plants; details: comparative experiment
Method in brief: as §2

[15] = system: Viola tricolor; assay: Post-emergence herbicidal action, VIOTR; set-up: key: % herbicidal action vs untreated; 100 = plants died, 0 = like control; details: comparative experiment, post-emergence, 20 g of a.i./ha
Method in brief: as §1

[16] = system: Echinochloa crus-galli; assay: Post-emergence herbicidal action, ECHCG; set-up: key: % herbicidal action vs untreated; 100 = plants died, 0 = like control; details: comparative experiment, post-emergence, 20 g of a.i./ha
Method in brief: as §1

[17] = system: Abutilon theophrasti; assay: Post-emergence herbicidal action, ABUTH; set-up: key: % herbicidal action vs untreated; 100 = plants died, 0 = like control; details: comparative experiment, post-emergence, 20 g of a.i./ha
Method in brief: as §1

[18] = system: Stellaria media; assay: Pre-emergence herbicidal action, STEME; set-up: key to Herbicidal action against STEME: % activity: 100 = plants have died, 0 = like control plants; details: comparative experiment
Method in brief: as §2

[19] = system: Amaranthus retroflexus; assay: Post-emergence herbicidal action, AMARE; set-up: key: % herbicidal action vs untreated; 100 = plants died, 0 = like control; details: comparative experiment, post-emergence, 20 g of a.i./ha
Method in brief: as §1

[20] = system: Setaria viridis; assay: Post-emergence herbicidal action, SETVI; set-up: key: % herbicidal action vs untreated; 100 = plants died, 0 = like control; details: comparative experiment, post-emergence, 20 g of a.i./ha
Method in brief: as §1

[21] = system: Echinochloa crus-galli; assay: Pre-emergence herbicidal action, ECHCG; details: Echinochloa crus-galli, 504 h, comparative experiment, 80 g of a.i./ha, read-out: Herbicidal action against ECHCG
Method in brief: as §2

[22] = system: Pharbitis purpurea; assay: Pre-emergence herbicidal action, PHBPU; details: comparative experiment, 20 g of a.i./ha
Method in brief: as §2

[23] = system: Avena fatua; assay: Pre-emergence herbicidal action, AVEFA; details: comparative experiment, 20 g of a.i./ha
From the text: 1. Pre-Emergence Herbicidal Action Against Harmful Plants Seeds of monocotyledonous and dicotyledonous weed plants and crop plants are laid out in sandy loam soil in wood-fiber pots and covered with soil. The compounds of the invention, formulated in the form of wettable powders (WP) or as emulsion concentrates (EC), are then applied to the surface of the covering soil in the form of an aqueous suspension or emulsion at a water application rate equating to 600 to 800 l/ha, with addition of 0.2% wetting agent. After the treatment, the pots are placed in a greenhouse and kept under good growth conditions for the trial plants. The damage to the test plants is scored visually after a test period of 3 weeks by comparison with untreated controls (herbicidal activity in percent (%): 100% activity=the plants have died, 0% activity=like control plants). […] The tables below illustrate, in an exemplary manner, the post-emergence herbicidal action of the compounds according to the invention, the herbicidal activity being stated in percent. [table] In the experiments that follow, herbicidal action of numerous inventive compounds and the known compounds that are structurally closest from D1 (WO 2012/028579 A1) and D2 (WO 2018/202535 A1) were compared under the above-specified conditions by the pre-emergence and post-emergence method. […]

## CCSc1c(C(F)(F)F)ccc(C(=O)Nc2nnnn2C)c1Cl [Example V-4, 2-chloro-3-(ethylsulfanyl)-N-(1-methyl-1H-tetrazol-5-yl)-4-(trifluoromethyl)benzamide, reference compound]
[1]; 5 g of a.i./ha
  Herbicidal action against VERPE: 80
[2]
  Herbicidal action against STEME: 60
[3]; 20 g of a.i./ha
  Herbicidal action against SETVI: 60
[4]
  Herbicidal action against VERPE: 80
[5]
  Herbicidal action against MATIN: 50
[6]
  Herbicidal action against POLCO: 30
[7]
  Herbicidal action against AVEFA: 30
[8]; 20 g of a.i./ha
  Herbicidal action against CYPES: 0
[9]; 20 g of a.i./ha
  Herbicidal action against ALOMY: 40
[10]; 5 g of a.i./ha
  Herbicidal action against MATIN: 60
[11]; 20 g of a.i./ha
  Herbicidal action against ABUTH: 0
[12]
  Herbicidal action against ALOMY: 40
[13]
  Herbicidal action against LOLMU: 10

## CC[S+]([O-])c1c(C(F)(F)F)ccc(C(=O)Nc2nnnn2C)c1Br (stereo not drawn) [Example V-12, 2-bromo-3-(ethylsulfinyl)-N-(1-methyl-1H-tetrazol-5-yl)-4-(trifluoromethyl)benzamide, reference compound]
[14]; 80 g of a.i./ha
  Herbicidal action against VIOTR: 0
[1]; 20 g of a.i./ha
  Herbicidal action against VERPE: 0
[15]
  Herbicidal action against VIOTR: 0
[3]; 80 g of a.i./ha
  Herbicidal action against SETVI: 0
[16]
  Herbicidal action against ECHCG: 0
[17]
  Herbicidal action against ABUTH: 0
[8]; 80 g of a.i./ha
  Herbicidal action against CYPES: 0
[9]; 80 g of a.i./ha
  Herbicidal action against ALOMY: 0
[10]; 20 g of a.i./ha
  Herbicidal action against MATIN: 0
[18]; 80 g of a.i./ha
  Herbicidal action against STEME: 0
[19]
  Herbicidal action against AMARE: 10
[11]; 80 g of a.i./ha
  Herbicidal action against ABUTH: 0
[20]
  Herbicidal action against SETVI: 20
[21]
  pest or weed control at 80 g/ha: 0%

## CSCc1c(Cl)ccc(C(=O)Nc2nnnn2C)c1C [Example 1-46]
[22]
  Herbicidal action against PHBPU: 40
[14]; 20 g of a.i./ha
  Herbicidal action against VIOTR: 70
[4]
  Herbicidal action against VERPE: 50
[5]
  Herbicidal action against MATIN: 80
[23]
  Herbicidal action against AVEFA: 20
[18]; 20 g of a.i./ha
  Herbicidal action against STEME: 90
